This note sets out measurements from US20230218548A1 (priority 2020, published 2023).

For data set [1], the system named is SARS-CoV-2. Nature of the data set: microbe, parasite or virus in culture. Format: cell-based, SARS-CoV-2 (USA-WA1/2020).
For data set [2], the system named is HeLa-ACE2 cells. Format: cell-based. The settings on record: host cell toxicity, 24 h, read-out: HeLa-ACE2 EC50. As to the method:
Compounds were prepared and plated in 384-well plates as for the infection assay. HeLa-ACE2 cells were seeded in the assay-ready plates at 1.6×10^3 cells/well in assay medium, and plates were incubated for 24 h at 37° C. with 5% CO2. To assess cell viability, the Image-IT DEAD green reagent (Thermo Fisher, 110291) was used according to manufacturer's instructions. Cells were fixed with 4% paraformaldehyde (PFA) and counterstained with DAPI. Fixed cells were imaged using the ImageXpress Micro Confocal High-Content Imaging System (Molecular Devices) with a 10x objective, and total live cells per well quantified in the acquired images using the Live Dead Application Module (MetaXpress).
The in vitro infection assay and the host cell cytotoxicity counterscreen data were uploaded to Genedata Screener, Version 16.0. Data were normalized to neutral (DMSO) […] inhibitor controls (2.5 μM remdesivir for antiviral effect, and 10 μM puromycin for infected host cell toxicity). For the uninfected host cell cytotoxicity counterscreen, 10 μM puromycin (Sigma) was used as a positive control. For dose-response experiments, compounds were tested in technical triplicates, and dose curves were fitted with the four parameter Hill Equation. Replicate data were analyzed using median condensing.

Data set [3] concerns the target SARS-CoV-2 envelope (E) protein (Severe acute respiratory syndrome coronavirus 2, UniProt P0DTC4). The data set is classed as cell-based.
For data set [4], the target named is ACE2 (Homo sapiens, UniProt Q9BYF1). As to the kind of experiment: Mass spectrometry analysis of S-nitrosylated ACE2 protein. Format: cell-based. The settings on record: after exposure to SNOC. As to the method: Biotin switch was performed as described above. […] The samples were desalted using a ZebaSpin desalting column (Thermo Scientific) pre-equilibrated with PBS, and biotinylated ACE2 protein was immunoprecipitated as described above. Immunoprecipitated ACE2 was eluted in 1% SDS solution and precipitated using methanol-chloroform. Dried pellets were dissolved in 8 M urea/100 mM triethylammonium bicarbonate (TEAB, pH 8.5). Samples were diluted to 2 M urea/100 mM TEAB, and proteins were trypsin digested overnight at 37° C. The digested ACE2 peptides were enriched a second time by biotin-avidin affinity to enrich biotinylated peptides representing the initial SNO sites. After avidin enrichment, peptides were eluted by reduction using tris(2-carboxyethyl)phosphine (TCEP).
ACE2, sequence (Q9BYF1 18-805): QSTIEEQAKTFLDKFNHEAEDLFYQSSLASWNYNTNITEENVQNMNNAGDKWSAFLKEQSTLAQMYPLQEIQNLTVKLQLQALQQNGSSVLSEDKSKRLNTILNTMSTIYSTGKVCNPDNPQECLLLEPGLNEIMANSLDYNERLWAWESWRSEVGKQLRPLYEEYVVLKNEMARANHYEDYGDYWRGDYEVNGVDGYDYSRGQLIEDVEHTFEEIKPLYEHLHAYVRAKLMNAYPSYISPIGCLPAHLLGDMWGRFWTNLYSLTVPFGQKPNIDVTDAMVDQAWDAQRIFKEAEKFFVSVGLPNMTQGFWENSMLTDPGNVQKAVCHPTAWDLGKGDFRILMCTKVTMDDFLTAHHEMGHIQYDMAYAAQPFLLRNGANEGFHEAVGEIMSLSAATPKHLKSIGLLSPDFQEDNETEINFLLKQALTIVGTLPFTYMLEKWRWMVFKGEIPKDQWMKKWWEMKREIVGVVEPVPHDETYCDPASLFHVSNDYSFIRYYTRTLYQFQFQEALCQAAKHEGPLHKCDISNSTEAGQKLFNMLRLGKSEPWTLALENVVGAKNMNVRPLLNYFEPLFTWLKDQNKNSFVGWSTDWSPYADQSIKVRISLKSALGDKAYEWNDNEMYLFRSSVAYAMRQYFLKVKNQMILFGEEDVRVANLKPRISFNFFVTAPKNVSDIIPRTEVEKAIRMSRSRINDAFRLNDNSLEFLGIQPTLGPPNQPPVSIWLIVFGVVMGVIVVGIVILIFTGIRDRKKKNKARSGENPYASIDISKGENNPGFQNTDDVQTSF
Samples were analyzed on a Thermo Orbitrap Eclipse mass spectrometer (Thermo). Samples were injected directly onto a 25 cm, 100 μm ID column packed with ethylene bridged hybrid (BEH) 1.7 μm C18 resin (Waters). Samples were separated at a flow rate of 300 nl/min on a nLC 1200 (Thermo) using a gradient of solution A (0.1% formic acid in water, 5% acetonitrile) and solution B (80% acetonitrile/0.1% formic acid). Specifically, a gradient of 1-25% B over 100 min, an increase to 40% B over 20 min, an increase to 100% B over another 10 min and held at […] for a 10 min was used for a 140 min total run time. […]

The mark [5] stands for this setting: Severe acute respiratory syndrome coronavirus 2, HeLa-ACE2, 24 h.

Usually EC50 stands for the concentration giving half of the maximal effect. A low value points to greater potency.

Where two headings read alike, the source gives them in different places.

SARS-CoV-2 envelope (E) protein, sequence (P0DTC4 whole entry, looked up): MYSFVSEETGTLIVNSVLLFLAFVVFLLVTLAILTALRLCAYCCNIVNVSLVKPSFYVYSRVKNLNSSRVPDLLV

Consider `CCC(O[N+](=O)[O-])C12CC3(C)CC(C)(CC(CCN)(C3)C1)C2` (stereo not shown) [NMT8], for which, in data set [1], the EC50 is 3.75 µM. The CC50 (host cell cytotoxicity) in data set [2] is 8.37 µM.
Turning to `CC12CC3(C)CC(CCN)(C1)CC(CO[N+](=O)[O-])(C2)C3` [NMT6], it took 3.32 µM to reach a half-maximal effect in data set [1] (EC50). The CC50 (host cell cytotoxicity) in data set [2] stood at 10.5 µM.
Turning to `NCC1(c2cccc(O[N+](=O)[O-])c2)C2CC3CC(C2)CC1C3` (stereo not shown) [NMT7], the response in data set [1] was half-maximal at 90.7 µM (EC50). For the same molecule, the CC50 (host cell cytotoxicity) in data set [2] is above 200 µM.
As to `COc1ccc(C[C@H](N)C(=O)N[C@H]2[C@@H](O)[C@H](n3cnc4c(N(C)C)ncnc43)O[C@@H]2CO)cc1` [Puromycin], the “Selectivity Index CC50/EC50” value in data set [1] came out at 0.728. In data set [1] (setting [5]), it took 0.617 µM to reach a half-maximal effect (EC50).
Regarding `NC12CC3CC(CC(C3)C1)C2` [NMT4, amantadine], the “Selectivity Index CC50/EC50” value in data set [1] is given as above 2.86. This molecule also showed an EC50 in data set [1] (setting [5]) of 70 µM.
Turning to `CC12CC3CC(C)(C1)CC(N)(C3)C2` [NMT1, memantine], the “Selectivity Index CC50/EC50” value in data set [1] worked out at 2.69. In addition, the EC50 in data set [1] (setting [5]) came out at 53.9 µM. Further, in data set [3], the “Inhibition of E protein voltage-dependent K+ current” value is on record as “inhibited in a dose-dependent manner”.
In the case of `Cc1cccc(/C=N/Nc2cc(N3CCOCC3)nc(OCCc3ccccn3)n2)c1` [Apilimod], the “Selectivity Index CC50/EC50” value in data set [1] is on record as above 332.11. Besides, the 50% effective concentration (EC50) in data set [1] (setting [5]) stood at 0.0072 µM.
For `N[C@@H](CSN=O)C(=O)O` [SNOC], in data set [4], the “S-nitrosylated ACE2 sites by mass spectrometry” value is “S-nitrosylated ACE2 at Cys^261 and Cys^496”.
In turn, `CC12CC3(C)CC(CN)(C1)CC(O[N+](=O)[O-])(C2)C3` [NMT9] displayed an EC50 in data set [1] above 200 µM. For the same molecule, the CC50 (host cell cytotoxicity) in data set [2] is above 200 µM.
On to `CCC12CC3CC(N)(C1)CC(CO[N+](=O)[O-])(C3)C2` (stereo not shown) [NMT2], for which the EC50 in data set [1] amounted to 21.9 µM. Besides, the CC50 (host cell cytotoxicity) in data set [2] came out at 122 µM.
Consider `CCC(CC)COC(=O)[C@H](C)N[P@](=O)(OC[C@H]1O[C@@](C#N)(c2ccc3c(N)ncnn23)[C@H](O)[C@@H]1O)Oc1ccccc1` [Remdesivir], for which the “Selectivity Index CC50/EC50” value in data set [1] is above 16.94. Further, the half-maximal effective concentration (EC50) in data set [1] (setting [5]) amounted to 0.142 µM.
